Source: article PMC5556071, “ATR inhibition facilitates targeting of leukemia dependence on convergent nucleotide biosynthetic pathways” (Nature Communications, 2017)
Read-outs that look alike come from different tables or passages of the source.

Assays:
Format in all cases: cell-based, human
Jurkat cells = test: Cell cycle histograms (propidium iodide flow cytometry); conditions: dCKi 1 µM, 24 h
Procedure: Cell cycle histograms. Cells were plated at a density of 0.5 x 10^6 cells/mL in respective media or drug treated
media. Following 24 h incubation, cells were harvested and washed twice with PBS twice before staining with
0.5 ml of propidium iodide (Calbiochem, #P3566, 1 µg/mL) solution containing Ribonuclease A and 0.3%
Triton-X 100. The samples were protected from light before acquisition by flow cytometry. […]

CEM cells [1] = test: Cell cycle analysis of asynchronous cells by flow cytometry (S-phase population, S-phase arrest); conditions: CEM, 24 h
Procedure: Cell cycle histograms. Cells were plated at a density of 0.5 x 10^6 cells/mL in respective media or drug treated media. Following 24 h incubation, cells were harvested and washed twice with PBS twice before staining with 0.5 ml of propidium iodide (Calbiochem, #P3566, 1 µg/mL) solution containing Ribonuclease A and 0.3% Triton-X 100. The samples were protected from light before acquisition by flow cytometry.
Cell cycle kinetics and cell cycle progression by intracellular detection of DNA-incorporated 5-ethynyl-2-deoxyuridine (EdU). CEM T-ALL cells were plated at a density of 0.5 x 10^6 cells/mL. Cells were pulsed with 10 µM EdU (Invitrogen) for 1 h, washed twice with PBS, and released in fresh media containing 5 µM deoxyribonucleosides, with and without drugs. Cells were collected at different time points following release in fresh media, and then fixed with 4% paraformaldehyde and permeabilized using saponin perm/wash reagent (Invitrogen). Cells were then stained with azide-Alexa Fluor 647 by Click reaction according to manufacturer’s protocol (Invitrogen; Click-iT EdU Flow cytometry kit, #C10634). […]

CEM cells [2] = test: Proliferation assay (CellTiter-Glo, 72 h)
Procedure: Cells were plated in 384-well plates (1000 cells/well for suspension cell lines and 500 cells/well for adherent cell lines in 30 µl volume). Drugs were serially diluted to the desired concentrations and an equivalent volume of DMSO was added to vehicle control. Ten microliter of the 4× diluted drugs were added to each well. Following 72 h incubation, ATP content was measured using CellTiter-Glo reagent according to manufacturer’s instructions (Promega, CellTiter-Glo Luminescent Cell Viability Assay), and analyzed by SpectraMax luminometer (Molecular Devices). IC50 values, concentrations required to inhibit proliferation by 50% compared to DMSO treated cells, were calculated using Prism 6.0 h (Graphpad Software).

[3] = Suppl. Fig. 5e, BCX-1777 100 nM

SMILES	fold higher concentration than 3-AP required to induce S-phase arrest (CEM cells [1])	IC50 (CEM cells [2]) [µM]	also measured
OC[C@H]1O[C@@H](n2cnc3c2NC=NC[C@H]3O)C[C@@H]1O [dCF, Pentostatin]			cells in G2/M (Jurkat cells; Suppl. Fig. 4e, dCF 10 µM): 6%; cells in S phase (Jurkat cells; Suppl. Fig. 4e, dCF 10 µM): 11%
NC(=O)NO [HU, hydroxyurea]	60–100 fold	74.5	
Cc1cn([C@H]2C[C@H](O)[C@@H](CO)O2)c(=O)[nH]c1=O [dT, thymidine]	60–100 fold		IC50 (CEM cells [2]; Homo sapiens, CCRF-CEM): 159 µM
Cc1occc(=O)c1[O-].Cc1occc(=O)c1[O-].Cc1occc(=O)c1[O-].[Ga+3] [GaM, gallium maltolate]	60–100 fold	49.8	
O=c1[nH]cnc2c([C@@H]3N[C@H](CO)[C@@H](O)[C@H]3O)c[nH]c12 [BCX-1777, forodesine]			cells in G2/M (Jurkat cells; [3]): 1.4%; cells in S phase (Jurkat cells; [3]): 40%
